Measured values from patent publication US12077503B2, “Substituted cyclic amides and their use as herbicides” (FMC CORPORATION, priority 2015, dated 2024).

What was measured:
Assay in all cases: Test C preemergence
Type in all cases: in vivo
Settings in all cases: scale 0 to 100, 0 no effect, 100 complete control
[1] = test system: Galium (catchweed bedstraw, Galium aparine)
Source text: (§1) Seeds of plant species selected from blackgrass (Alopecurus myosuroides), ryegrass, Italian (Italian ryegrass, Lolium multiflorum), wheat (winter wheat, Triticum aestivum), Galium (catchweed bedstraw, Galium aparine), corn (Zea mays), crabgrass, large (large crabgrass, Digitaria sanguinalis), foxtail, giant (giant foxtail, Setaria faberii), johnsongrass (Sorghum halepense), lambsquarters (Chenopodium album), morningglory (Ipomoea coccinea), nutsedge, yellow (yellow nutsedge, Cyperus esculentus), pigweed (Amaranthus retroflexus), ragweed (common ragweed, Ambrosia elatior), soybean (Glycine max), barnyardgrass (Echinochloa crus-galli), oilseed rape (Brassica napus), waterhemp (common waterhemp, Amaranthus rudis) and velvetleaf (Abutilon theophrasti) were planted into a blend of loam soil and sand and treated preemergence with test chemicals formulated in a non-phytotoxic solvent mixture which included a surfactant.
(§2) At the same time, plants selected from these crop and weed species and also Kochia (Kochia scoparia), oat, wild (wild oat, Avena fatua), and chickweed (common chickweed, Stellaria media) were planted in pots containing Sunshine Redi-Earth® planting medium comprising spaghnum peat moss, vermiculite, starter nutrients and dolomitic limestone and treated with postemergence applications of test chemicals formulated in the same manner. Plants ranged in height from 2 to 18 cm (1- to 4-leaf stage) for postemergence treatments. Treated plants and controls were maintained in a greenhouse for 13 to 15 d, after which time all species were compared to controls and visually evaluated. Plant response ratings, summarized in Table C, are based on a scale of 0 to 100 where 0 is no effect and 100 is complete control. A dash (-) response means no test result.

[2] = test system: blackgrass (Alopecurus myosuroides)
Source text: as §1, §2

[3] = test system: barnyardgrass (Echinochloa crus-galli)
Source text: as §1, §2

soybean (Glycine max) = test system: soybean (Glycine max)
Source text: as §1, §2

[4] = test system: nutsedge, yellow (yellow nutsedge, Cyperus esculentus)
Source text: as §1, §2

corn (Zea mays) = test system: corn (Zea mays)
Source text: as §1, §2

[5] = test system: morningglory (Ipomoea coccinea)
Source text: as §1, §2

[6] = test system: ragweed (common ragweed, Ambrosia elatior)
Source text: as §1, §2

[7] = test system: foxtail, giant (giant foxtail, Setaria faberii)
Source text: as §1, §2

[8] = test system: pigweed (Amaranthus retroflexus)
Source text: as §1, §2

[9] = test system: johnsongrass (Sorghum halepense)
Source text: as §1, §2

[10] = test system: lambsquarters (Chenopodium album)
Source text: as §1, §2

[11] = test system: oilseed rape (Brassica napus)
Source text: as §1, §2

[12] = test system: ryegrass, Italian (Italian ryegrass, Lolium multiflorum)
Source text: as §1, §2

[13] = test system: waterhemp (common waterhemp, Amaranthus rudis)
Source text: as §1, §2

[14] = test system: crabgrass, large (large crabgrass, Digitaria sanguinalis)
Source text: as §1, §2

[15] = test system: velvetleaf (Abutilon theophrasti)
Source text: as §1, §2

[16] = test system: wheat (winter wheat, Triticum aestivum)
Source text: as §1, §2

SMILES: O=C1NCC(c2ccc(Br)cc2)C1C(=O)Nc1cccc(F)c1F (stereo not shown) [Compound 446]
- Plant response rating, Galium ([1]; 31 g ai/ha): 0
- Plant response rating, Galium ([1]; 62 g ai/ha): 90
- Plant response rating, Galium ([1]; 125 g ai/ha): 90
- Plant response rating, Galium ([1]; 250 g ai/ha): 95
- Plant response rating, Blackgrass ([2]; 31 g ai/ha): 0
- Plant response rating, Blackgrass ([2]; 62 g ai/ha): 0
- Plant response rating, Blackgrass ([2]; 125 g ai/ha): 50
- Plant response rating, Blackgrass ([2]; 250 g ai/ha): 55
- Plant response rating, Barnyardgrass ([3]; 31 g ai/ha): 90
- Plant response rating, Barnyardgrass ([3]; 62 g ai/ha): 90
- Plant response rating, Barnyardgrass ([3]; 125 g ai/ha): 90
- Plant response rating, Barnyardgrass ([3]; 250 g ai/ha): 95
- Plant response rating, Soybean (soybean (Glycine max); 62 g ai/ha): 20
- Plant response rating, Soybean (soybean (Glycine max); 125 g ai/ha): 10
- Plant response rating, Soybean (soybean (Glycine max); 250 g ai/ha): 25
- Plant response rating, Nutsedge, Yellow ([4]; 31 g ai/ha): 0
- Plant response rating, Nutsedge, Yellow ([4]; 62 g ai/ha): 0
- Plant response rating, Nutsedge, Yellow ([4]; 125 g ai/ha): 0
- Plant response rating, Nutsedge, Yellow ([4]; 250 g ai/ha): 0
- Plant response rating, Corn (corn (Zea mays); 31 g ai/ha): 0
- Plant response rating, Corn (corn (Zea mays); 62 g ai/ha): 0
- Plant response rating, Corn (corn (Zea mays); 125 g ai/ha): 0
- Plant response rating, Corn (corn (Zea mays); 250 g ai/ha): 10
- Plant response rating, Morningglory ([5]; 31 g ai/ha): 0
- Plant response rating, Morningglory ([5]; 62 g ai/ha): 0
- Plant response rating, Morningglory ([5]; 125 g ai/ha): 0
- Plant response rating, Morningglory ([5]; 250 g ai/ha): 0
- Plant response rating, Ragweed ([6]; 31 g ai/ha): 25
- Plant response rating, Ragweed ([6]; 62 g ai/ha): 40
- Plant response rating, Ragweed ([6]; 125 g ai/ha): 75
- Plant response rating, Ragweed ([6]; 250 g ai/ha): 85
- Plant response rating, Foxtail, Giant ([7]; 31 g ai/ha): 85
- Plant response rating, Foxtail, Giant ([7]; 62 g ai/ha): 90
- Plant response rating, Foxtail, Giant ([7]; 125 g ai/ha): 90
- Plant response rating, Foxtail, Giant ([7]; 250 g ai/ha): 95
- Plant response rating, Pigweed ([8]; 31 g ai/ha): 50
- Plant response rating, Pigweed ([8]; 62 g ai/ha): 75
- Plant response rating, Pigweed ([8]; 125 g ai/ha): 80
- Plant response rating, Pigweed ([8]; 250 g ai/ha): 85
- Plant response rating, Johnsongrass ([9]; 31 g ai/ha): 20
- Plant response rating, Johnsongrass ([9]; 62 g ai/ha): 40
- Plant response rating, Johnsongrass ([9]; 125 g ai/ha): 50
- Plant response rating, Johnsongrass ([9]; 250 g ai/ha): 65
- Plant response rating, Lambsquarters ([10]; 31 g ai/ha): 60
- Plant response rating, Lambsquarters ([10]; 62 g ai/ha): 50
- Plant response rating, Lambsquarters ([10]; 125 g ai/ha): 55
- Plant response rating, Lambsquarters ([10]; 250 g ai/ha): 95
- Plant response rating, Oilseed Rape ([11]; 31 g ai/ha): 0
- Plant response rating, Oilseed Rape ([11]; 62 g ai/ha): 85
- Plant response rating, Oilseed Rape ([11]; 125 g ai/ha): 90
- Plant response rating, Oilseed Rape ([11]; 250 g ai/ha): 95
- Plant response rating, Ryegrass, Italian ([12]; 62 g ai/ha): 0
- Plant response rating, Ryegrass, Italian ([12]; 125 g ai/ha): 0
- Plant response rating, Ryegrass, Italian ([12]; 250 g ai/ha): 45
- Plant response rating, Waterhemp ([13]; 62 g ai/ha): 100
- Plant response rating, Waterhemp ([13]; 125 g ai/ha): 80
- Plant response rating, Waterhemp ([13]; 250 g ai/ha): 98
- Plant response rating, Crabgrass, Large ([14]; 31 g ai/ha): 100
- Plant response rating, Crabgrass, Large ([14]; 62 g ai/ha): 100
- Plant response rating, Crabgrass, Large ([14]; 125 g ai/ha): 100
- Plant response rating, Crabgrass, Large ([14]; 250 g ai/ha): 100
- Plant response rating, Velvetleaf ([15]; 62 g ai/ha): 0
- Plant response rating, Velvetleaf ([15]; 125 g ai/ha): 10
- Plant response rating, Velvetleaf ([15]; 250 g ai/ha): 30
- Plant response rating, Wheat ([16]; 62 g ai/ha): 0
- Plant response rating, Wheat ([16]; 125 g ai/ha): 0
- Plant response rating, Wheat ([16]; 250 g ai/ha): 30
